Data from ChEMBL document CHEMBL1201862, “PubChem BioAssay data set” (2004).
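Each compound was tested at five concentrations against cells in 96-well plates for 48 hours. GI50 = concentration required for 50% inhibition of growth.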 The source made the active and inactive calls. Cut-off read from the data, not from the text of the source: active = GI50 up to about 1.1 µM and inactive = higher.

Legend:
Assay in all cases: DTP human tumour cell line panel, 48 h
[1] = system: ACHN
[2] = system: Malme-3M
[3] = system: OVCAR-5
[4] = system: NCI-H460
[5] = system: KM-20L2
[6] = system: CCRF-CEM
[7] = system: HT-29
[8] = system: SW-620
[9] = system: M19-MEL
[10] = system: DMS-273
[11] = system: DLD-1
[12] = system: A498
[13] = system: CAKI-1
[14] = system: HCT-15

Compound	GI50 [1]	GI50 [2]	GI50 [3]	GI50 [4]	GI50 [5]	GI50 [6]	GI50 [7]	GI50 [8]	GI50 [9]	GI50 [10]	GI50 [11]	GI50 [12]	GI50 [13]	GI50 [14] [µM]
COC(=O)C1=C(\O)C[C@@]2(C)CC[C@@H](C(=O)OC)C2C/C=C\1C(=O)OC (some centres undefined)	> 100 µM (inactive)	> 100 µM (inactive)	46.3 µM (inactive)	> 100 µM (inactive)	> 100 µM (inactive)	> 100 µM (inactive)	> 100 µM (inactive)	> 100 µM (inactive)	> 100 µM (inactive)	> 100 µM (inactive)	> 100 µM (inactive)	23 µM (inactive)	> 100 µM (inactive)	> 100
O=c1n(C2CCCCC2)c(=C(Cl)Cl)c(=C(Cl)Cl)n1C1CCCCC1	> 100 µM (inactive)	> 100 µM (inactive)	> 100 µM (inactive)	> 100 µM (inactive)	> 100 µM (inactive)	> 100 µM (inactive)	> 100 µM (inactive)	> 100 µM (inactive)	> 100 µM (inactive)	> 100 µM (inactive)	> 100 µM (inactive)	> 100 µM (inactive)	–	> 100
CCC1=C(C[C@H]2NCCc3cc(OC)c(OC)cc32)C[C@H]2c3cc(OC)c(OC)cc3CCN2C1	0.0388 µM (active)	0.136 µM (active)	0.0521 µM (active)	0.0261 µM (active)	0.0288 µM (active)	–	0.0272 µM (active)	0.028 µM (active)	0.0251 µM (active)	0.0274 µM (active)	0.0296 µM (active)	0.0181 µM (active)	0.0312 µM (active)	0.258
CCN1C(=O)N2C(OC)c3ccccc3C(Br)C2(OC)C1=O (centres undefined)	–	> 100 µM (inactive)	> 100 µM (inactive)	> 100 µM (inactive)	> 100 µM (inactive)	> 100 µM (inactive)	–	> 100 µM (inactive)	> 100 µM (inactive)	> 100 µM (inactive)	> 100 µM (inactive)	> 100 µM (inactive)	> 100 µM (inactive)	> 100
CCOC(=O)NC(=O)c1cn(CCCCCCOC(=O)NCCCCCCNC(=O)OCCCCCCn2cc(C(=O)NC(=O)OCC)c(=O)[nH]c2=O)c(=O)[nH]c1=O	> 100 µM (inactive)	> 100 µM (inactive)	–	> 100 µM (inactive)	> 100 µM (inactive)	> 100 µM (inactive)	> 100 µM (inactive)	> 100 µM (inactive)	> 100 µM (inactive)	> 100 µM (inactive)	> 100 µM (inactive)	> 100 µM (inactive)	> 100 µM (inactive)	> 100
CC(=O)NNc1nc(C)c(C(=O)/C=C/c2cccc([N+](=O)[O-])c2)s1	–	> 100 µM (inactive)	> 100 µM (inactive)	> 100 µM (inactive)	> 100 µM (inactive)	> 100 µM (inactive)	> 100 µM (inactive)	> 100 µM (inactive)	> 100 µM (inactive)	> 100 µM (inactive)	> 100 µM (inactive)	> 100 µM (inactive)	> 100 µM (inactive)	> 100
O=[N+]([O-])c1ccc(-c2ccc(-c3csc(Nc4ccccn4)n3)o2)cc1	45.8 µM (inactive)	32.3 µM (inactive)	> 100 µM (inactive)	> 10 µM (inactive)	> 100 µM (inactive)	–	> 100 µM (inactive)	> 100 µM (inactive)	58.6 µM (inactive)	35.2 µM (inactive)	> 100 µM (inactive)	–	> 100 µM (inactive)	79.8
Cn1c(=O)c2ccccc2c2nc3ccccc3nc21	> 100 µM (inactive)	> 100 µM (inactive)	> 100 µM (inactive)	–	> 100 µM (inactive)	–	> 100 µM (inactive)	> 100 µM (inactive)	> 100 µM (inactive)	> 100 µM (inactive)	–	–	–	> 100
